Experimental data as given in US20110207751A1, “HETEROCYCLIC COMPOUNDS AND USES AS ANTICANCER AGENTS” (priority 2010, published 2011).
Where a name gives a salt, the structure may show the parent alone. Read-outs that look alike come from different tables or passages of the source.

Assays:
[1] = Body weight and animal number of carrier mice, A549 xenograft test; type: in vivo, BALB/c immunodeficient nude mice
Text: To evaluate the in vivo anticancer efficacy of COMPOUND O, A549 human non-small cell lung cancer xenograft models in immunodeficient nude mice was used. The cell line and mice were maintained in the Pharmacology Lab of ACEA Bio (Hangzhou) CO., Ltd. The BALB/c immunodeficient nude mice were purchased from Shanghai SLAC Laboratory Animal, certification number: SCXKA (Shanghai) 2007-0005. The mouse weight was between 21±1 g. Only female mice were used in this study. The numbers of animals tested were as follow: 7-8 for each dose group, 6 for positive control group and 7 for negative control group.
(§1) Test Control. For negative control, each mouse was administered orally with the solvent only having the same volume and same concentration as those used in COMPOUND O test, 120 mg/kg once every other day (qod) for 25 days. For positive control, an oral anticancer compound, Etoposide was administered orally at 30 mg/kg qod for 25 days.
Preparation an Administration of Test Compounds. COMPOUND O was dissolved in 25% phospholipid (S75) and 75% polyvinylpyrrolidone (PL-PVP) then further diluted to 8 mg/ml in 0.9% NaCl aqueous solution. Each mouse was administered orally with the compound solution. Different dosages of COMPOUND O (120 mg/kg qod and 160 mg/kg q2*2 (dosing for 2 consecutive days then off for 2 consecutive days) were used in the study.
(§2) All used materials including animal food, animal cage, supporting materials and apparatus contacted by animals, were high-pressure sterilized. Nude mice were maintained in laminar flow shelves under SPF condition. After tumor transplantation, mouse weight and tumor size in each compound dosage group were dynamically monitored and plotted. The tumor size was determined by measuring the major axis (a) and minor axis (b) of the tumor, and tumor volume was calculated according to the formula (2) in Example 1.

[2] = system: KB200 cells over-expressing multiple drug resistant (MDR) gene; assay: Inhibition of cell proliferation, xCelligence cell index; type: cell-based; settings: Homo sapiens
Text: (§3) The biological activity of compounds disclosed herein was monitored and profiled using the Real-Time Cell Electronic Sensing (RT-CES®) system from ACEA Biosciences, Inc. The RT-CES system utilizes cell-substrate impedance technology to monitor cellular behavior inside tissue culture wells in a microtiter plate format. The technology features in the integration of molecular and cell biology with microelectronics and is based on the electronic detection of biological assay process.
For measurement of cell-substrate or cell-electrode impedance using RT-CES technology, microelectrodes having appropriate geometries are fabricated onto the bottom surfaces of microtiter plate or similar device, facing into the wells. Cells are introduced into the wells of the devices, and make contact to and attach to the electrode surfaces. The presence, absence or change of properties of cells affects the electronic and ionic passage on the electrode sensor surfaces. Measuring the impedance between or among electrodes provides important information about biological status of cells present on the sensors. When there are changes to the biological status of the cells analogue electronic readout signals are measured automatically and in real time, and are converted to digital signals for processing and for analysis. In a RT-CES system, a cell index (arbitrary representation of change in impedance) is automatically derived and provided based on measured electrode impedance values. The cell index obtained for a given well reflects: 1) how many cells are attached to the electrode surfaces in this well; 2) how well cells are attached to the electrode surfaces in this well. Thus, the more the cells of same type in similar physiological conditions attach the electrode surfaces, the larger the cell index. And, the better the cells attach to the electrode surfaces (e.g., the cells spread-out more to have larger contact areas, or the cells attach tighter to electrode surfaces), the larger the cell index.
To quantify cell status based on the measured cell-electrode impedance, a parameter termed Cell Index is derived. Cell Index is a quantitative measure of the status of the cells in an electrode-containing well. Under the same physiological conditions, more cells attached on to the electrodes leads to larger cell-electrode resistance value, leading to a larger value for Cell Index. Furthermore, for the same number of cells present in the well, a change in the cell status such as morphology will lead to a change in the Cell Index. […]
The efficacy of these compounds was also tested against KB200 cell over-expressing multiple drug resistant (MDR) gene. […] The cell status was monitored prior to and after the compound addition using xCelligence system (Roche). […]

[3] = system: KB cells (parental cervical cancer cell line); assay: as above; type: cell-based; settings: Homo sapiens, 72 hr post compound treatment, read-out: calculated IC50
Text: as §3
For measurement of cell-substrate or cell-electrode impedance using RT-CES technology, microelectrodes having appropriate geometries are fabricated onto the bottom surfaces of microtiter plate or similar device, facing into the wells. Cells are introduced into the wells of the devices, and make contact to and attach to the electrode surfaces. The presence, absence or change of properties of cells affects the electronic and ionic passage on the electrode sensor surfaces. Measuring the impedance between or among electrodes provides important information about biological status of cells present on the sensors. When there are changes to the biological status of the cells analogue electronic readout signals are measured automatically and in real time, and are converted to digital signals for processing and for analysis. In a RT-CES system, a cell index (arbitrary representation of change in impedance) is automatically derived and provided based on measured electrode impedance values. The cell index obtained for a given well reflects: 1) how many cells are attached to the electrode surfaces in this well; 2) how well cells are attached to the electrode surfaces in this well. […]
To quantify cell status based on the measured cell-electrode impedance, a parameter termed Cell Index is derived. Cell Index is a quantitative measure of the status of the cells in an electrode-containing well. […]
The parental cervical cancer cell line, KB cells were first tested. […] The cell status was monitored prior to and after the compound addition using xCelligence system (Roche). […]

[4] = Body weight and animal number of carrier mice, H460 xenograft test; type: in vivo, BALB/c immunodeficient nude mice; settings: for Animal No. end: 7 at beginning
Text: To evaluate the in vivo anticancer efficacy of COMPOUND O, H460 human non-small cell lung Cancer xenograft models in immunodeficient nude mice was used. The cell line and mice were maintained in the Pharmacology Lab of ACEA Bio (Hangzhou) CO., Ltd. The BALB/c immunodeficient nude mice were purchased from Shanghai SLAC Laboratory Animal, certification number: SCXKA (Shanghai) 2007-0005. The mouse weight was between 19±2 g. Only female mice were used in this study. The numbers of animals tested were as follows: 7 for each dose group, 7 for positive control group and 7 for negative control group.
as §1
Preparation an Administration of Test Compounds. COMPOUND O was dissolved in 25% phospholipid (S75) and 75% polyvinylpyrrolidone (PL-PVP) then further diluted to 8 mg/ml in 0.9% NaCl aqueous solution. Each mouse was administered orally with the compound solution. Different dosages of COMPOUND O (120 mg/kg qod and 160 mg/kg q3d) were used in the study.
as §2

[5] = 72 hr post compound treatment, read-out: calculated IC50

CCc1ccc(Nc2nc(-c3c(C)nc4sccn34)cs2)cc1 [COMPOUND O, 2-(4-ethylphenyl)amino-4-(6-methylimidazo[2,1-b]thiazol-5-yl)-thiazole monohydrobromide]
Animal weight (g) Beginning ([1]; 120 mg/kg ig × 14 qod): 20.77 g | Animal weight (g) end ([1]; 120 mg/kg ig × 14 qod): 16.94 g | Body weight of mice (g) 1 day ([1]; 120 mg/kg ig × 14 qod): 20.77 ± 0.68 g | Body weight of mice (g) 4 day ([1]; 120 mg/kg ig × 14 qod): 20.27 ± 0.83 g | Body weight of mice (g) 8 day ([1]; 120 mg/kg ig × 14 qod): 19.57 ± 1.09 g | Body weight of mice (g) 11 day ([1]; 120 mg/kg ig × 14 qod): 18.20 ± 0.59 g | Body weight of mice (g) 15 day ([1]; 120 mg/kg ig × 14 qod): 17.90 ± 0.61 g | Body weight of mice (g) 18 day ([1]; 120 mg/kg ig × 14 qod): 17.90 ± 1.09 g | Body weight of mice (g) 22 day ([1]; 120 mg/kg ig × 14 qod): 17.21 ± 1.20 g | Body weight of mice (g) 25 day ([1]; 120 mg/kg ig × 14 qod): 17.00 ± 1.29 g | Animal No. end ([1]; 120 mg/kg ig × 14 qod, 7 at beginning): 7/7 | Animal weight (g) Beginning ([1]; 160 mg/kg ig × 11 q2*2): 21.69 g | Animal weight (g) end ([1]; 160 mg/kg ig × 11 q2*2): 17.97 g | Body weight of mice (g) 1 day ([1]; 160 mg/kg ig × 11 q2*2): 21.69 ± 0.66 g | Body weight of mice (g) 4 day ([1]; 160 mg/kg ig × 11 q2*2): 21.20 ± 0.79 g | Body weight of mice (g) 8 day ([1]; 160 mg/kg ig × 11 q2*2): 19.00 ± 1.48 g | Body weight of mice (g) 11 day ([1]; 160 mg/kg ig × 11 q2*2): 17.78 ± 2.11 g | Body weight of mice (g) 15 day ([1]; 160 mg/kg ig × 11 q2*2): 17.43 ± 1.86 g | Body weight of mice (g) 18 day ([1]; 160 mg/kg ig × 11 q2*2): 18.43 ± 0.90 g | Body weight of mice (g) 22 day ([1]; 160 mg/kg ig × 11 q2*2): 18.70 ± 1.04 g | Body weight of mice (g) 25 day ([1]; 160 mg/kg ig × 11 q2*2): 17.97 ± 0.93 g | Animal No. end ([1]; 160 mg/kg ig × 11 q2*2, 8 at beginning): 8/3 | IC50 [2, 5]: 9.84 nM | IC50 [3]: 33.1 nM | Animal weight (g) Beginning ([4]; 120 mg/kg ig × 11 qod): 20.04 g | Animal weight (g) end ([4]; 120 mg/kg ig × 11 qod): 17.33 g | Body weight of mice (g) 1 day ([4]; 120 mg/kg ig × 11 qod): 20.04 ± 0.51 g | Body weight of mice (g) 3 day ([4]; 120 mg/kg ig × 11 qod): 19.80 ± 1.18 g | Body weight of mice (g) 7 day ([4]; 120 mg/kg ig × 11 qod): 18.86 ± 0.70 g | Body weight of mice (g) 10 day ([4]; 120 mg/kg ig × 11 qod): 18.20 ± 0.68 g | Body weight of mice (g) 14 day ([4]; 120 mg/kg ig × 11 qod): 18.11 ± 0.49 g | Body weight of mice (g) 17 day ([4]; 120 mg/kg ig × 11 qod): 17.43 ± 0.51 g | Body weight of mice (g) 22 day ([4]; 120 mg/kg ig × 11 qod): 17.24 ± 0.72 g | Body weight of mice (g) 24 day ([4]; 120 mg/kg ig × 11 qod): 17.56 ± 1.21 g | Body weight of mice (g) 25 day ([4]; 120 mg/kg ig × 11 qod): 17.33 ± 1.23 g | Animal No. end ([4]; 120 mg/kg ig × 11 qod): 7/7 | Animal weight (g) Beginning ([4]; 160 mg/kg ig × 9 q3d): 20.00 g | Animal weight (g) end ([4]; 160 mg/kg ig × 9 q3d): 16.24 g | Body weight of mice (g) 1 day ([4]; 160 mg/kg ig × 9 q3d): 20.00 ± 0.48 g | Body weight of mice (g) 3 day ([4]; 160 mg/kg ig × 9 q3d): 20.54 ± 0.53 g | Body weight of mice (g) 7 day ([4]; 160 mg/kg ig × 9 q3d): 18.64 ± 0.61 g | Body weight of mice (g) 10 day ([4]; 160 mg/kg ig × 9 q3d): 17.89 ± 0.39 g | Body weight of mice (g) 14 day ([4]; 160 mg/kg ig × 9 q3d): 17.83 ± 0.57 g | Body weight of mice (g) 17 day ([4]; 160 mg/kg ig × 9 q3d): 18.24 ± 0.46 g | Body weight of mice (g) 22 day ([4]; 160 mg/kg ig × 9 q3d): 16.91 ± 0.97 g | Body weight of mice (g) 24 day ([4]; 160 mg/kg ig × 9 q3d): 16.53 ± 1.29 g | Body weight of mice (g) 25 day ([4]; 160 mg/kg ig × 9 q3d): 16.24 ± 1.55 g | Animal No. end ([4]; 160 mg/kg ig × 9 q3d): 7/7

COc1cc([C@@H]2c3cc4c(cc3[C@@H](O[C@@H]3O[C@@H]5CO[C@@H](C)O[C@H]5[C@H](O)[C@H]3O)[C@H]3COC(=O)[C@H]23)OCO4)cc(OC)c1O [Etoposide, reference compound]
Animal weight (g) Beginning ([1]; 30 mg/kg ig × 13 qod): 21.30 g | Animal weight (g) end ([1]; 30 mg/kg ig × 13 qod): 18.18 g | Body weight of mice (g) 1 day ([1]; 30 mg/kg ig × 13 qod): 21.30 ± 0.70 g | Body weight of mice (g) 4 day ([1]; 30 mg/kg ig × 13 qod): 19.38 ± 2.22 g | Body weight of mice (g) 8 day ([1]; 30 mg/kg ig × 13 qod): 20.53 ± 1.26 g | Body weight of mice (g) 11 day ([1]; 30 mg/kg ig × 13 qod): 19.62 ± 1.15 g | Body weight of mice (g) 15 day ([1]; 30 mg/kg ig × 13 qod): 19.63 ± 1.63 g | Body weight of mice (g) 18 day ([1]; 30 mg/kg ig × 13 qod): 19.48 ± 2.01 g | Body weight of mice (g) 22 day ([1]; 30 mg/kg ig × 13 qod): 19.10 ± 2.57 g | Body weight of mice (g) 25 day ([1]; 30 mg/kg ig × 13 qod): 18.18 ± 1.86 g | Animal No. end ([1]; 30 mg/kg ig × 13 qod, 6 at beginning): 6/6 | Animal weight (g) Beginning ([4]; 30 mg/kg ig × 13 qod): 19.97 g | Animal weight (g) end ([4]; 30 mg/kg ig × 13 qod): 17.13 g | Body weight of mice (g) 1 day ([4]; 30 mg/kg ig × 13 qod): 19.97 ± 0.88 g | Body weight of mice (g) 3 day ([4]; 30 mg/kg ig × 13 qod): 19.66 ± 0.75 g | Body weight of mice (g) 7 day ([4]; 30 mg/kg ig × 13 qod): 19.70 ± 1.38 g | Body weight of mice (g) 10 day ([4]; 30 mg/kg ig × 13 qod): 19.66 ± 1.10 g | Body weight of mice (g) 14 day ([4]; 30 mg/kg ig × 13 qod): 18.86 ± 1.07 g | Body weight of mice (g) 17 day ([4]; 30 mg/kg ig × 13 qod): 18.79 ± 1.17 g | Body weight of mice (g) 22 day ([4]; 30 mg/kg ig × 13 qod): 17.86 ± 1.35 g | Body weight of mice (g) 24 day ([4]; 30 mg/kg ig × 13 qod): 17.56 ± 1.44 g | Body weight of mice (g) 25 day ([4]; 30 mg/kg ig × 13 qod): 17.13 ± 1.14 g | Animal No. end ([4]; 30 mg/kg ig × 13 qod): 7/7

CC(=O)O[C@H]1C(=O)[C@@]2(C)[C@H]([C@H](OC(=O)c3ccccc3)[C@]3(O)C[C@H](OC(=O)[C@H](O)[C@@H](NC(=O)c4ccccc4)c4ccccc4)C(C)=C1C3(C)C)[C@]1(OC(C)=O)CO[C@@H]1C[C@@H]2O [paclitaxel]
IC50 [2, 5]: > 1000 nM | IC50 ([2]; read-out: IC50): > 1000 nM | IC50 [3]: 7.19 nM
